System: sensory panel
Assay: Taste modifier properties in model systems (sensory panel of 15 persons, with/without noseclip)
Assay type: in vivo, human
Details: 100 ppm
Protocol: The sensory properties of various compositions comprising a monoester derivative of glucose were tested in various model systems, outlined in Table 14 below. [table] FIGS. 12 to 18 report the sweetness modifier properties of each of the following compounds (tested at 100 ppm in the various mode systems described above): glucose-6-O-octanoate, glucose-6-O-acetate, glucose-6-O-hexanoate, glucose-6-O-decanoate, glucose-6-O-hexadecanoate, glucose-6-O-oleate and glucose-6-O-oleyl derivative. The sensory properties were evaluated by a sensory panel consisting of15 persons, where the properties were evaluated with the subjects wearing a noseclip (With NC), and without a noseclip (Without NC). The subjects evaluate the perceived intensities of different sensory attributes on a linear scale (“0” note intense to “10” very intense) for the corresponding model mixtures without and with the compound at 100ppm. The differences of perceived intensities between the model mixtures with and without the compound are represented for each attribute. A statistical data treatment (unilateral paired student test) is achieved on each attribute to conclude on a significant or not significant taste modulation effect of the compound.

[1] = SG95-sour model system, with and without nose clip, significance 95%
[2] = SG95, with nose clip, significance 95%

## CC(=O)OC[C@@H](O)[C@@H](O)[C@H](O)[C@@H](O)C=O [glucose-6-O-acetate]
SG95
  Licorice taste modulation effect: slight masking effects
  Sweet lingering modulation effect: slight masking effects
Model system not stated
  Bitterness modulation effect: slight bitterness masking effet
Sucrose model mixture
  Sweet taste modulation effect: slights enhancing sweetness effects
Tasted model systems
  Taste modulation effects overall: no significant modulation effects

## CCCCCCCCCC(=O)OC[C@@H](O)[C@@H](O)[C@H](O)[C@@H](O)C=O [glucose-6-O-decanoate]
SG95-sour model system, without nose clip, significance 95%
  Licorice taste modulation effect: significant licorice taste masking effect
All the other model systems
  Taste modulation effects: no significant effects

## CCCCCCCCCCCCCCCC(=O)OC[C@@H](O)[C@@H](O)[C@H](O)[C@@H](O)C=O [glucose-6-O-hexadecanoate]
SG95/sour model system, without nose clip, significance 95%
  Sweet taste modulation effect: significant sweet masking effect
Grapefruit beverage, significance 95%
  Round/thick/mouth coating modulation effect: significant round/thick/mouth coating enhancing effect
With nose clip, significance 95%
  Bitter taste modulation effect: significant bitter enhancing effect

## CCCCCC(=O)OC[C@@H](O)[C@@H](O)[C@H](O)[C@@H](O)C=O [glucose-6-O-hexanoate]
[1]
  Licorice taste modulation effect: significant licorice taste masking effect
  Sour taste modulation effect: significant sour enhancing effect
[2]
  Sweet lingering modulation effect: significant sweet and sweet lingering masking effects
  Sweet taste modulation effect: significant sweet and sweet lingering masking effects
Sweet and sour model system, with and without nose clip, significance 95%
  Sweet taste modulation effect: significant sweet enhancing effect

## CCCCCCCC/C=C\CCCCCCCC(=O)OC[C@@H](O)[C@@H](O)[C@H](O)[C@@H](O)C=O [glucose-6-O-oleate]
[1]
  Licorice taste modulation effect: significant licorice taste masking effect
SG95 model system, with and without nose clip, at least 95%
  Licorice taste modulation effect: significant licorice taste masking effect
Without nose clip, significance 95%
  Bitter taste modulation effect: significant bitter enhancing effect
Without nose clip, significance 95%, model system not stated
  Sweet lingering modulation effect: significant sweet lingering masking effect

## glucose-6-O-oleyl derivative
[2]
  Sweet lingering modulation effect: significant sweet lingering masking effect
Beverage grapefruit, significance 95%
  Flavor intensity modulation effect: significant flavor intensity masking effect
